Reference: patent US8367121B2, “Nutraceutical agent for attenuating the neurodegenerative process associated with Parkinson's disease” (Florida A & M University, priority 2005, dated 2013)
Where two headings read alike, the source gives them in different places.

How the values were obtained:
[1] = tested on: MPP+ toxicity; test: MPP+ toxicity in vitro (loss of ATP / cell death); format: cell-based; settings: for protection against MPP+ toxicity: in vitro
[2] = Reduce/chelate and complex iron; settings: as demonstrated in our lab
[3] = tested on: 6-OHDA toxicity; test: 6-OHDA toxicity in vitro; format: cell-based
[4] = Non-enzymatic DA oxidation to melanized pigments in buffered non-acid solution exposed to atmosphere; settings: neutral pH; data not published
Source text: 2. DA AUTOXIDATION—The second major route for DA oxidation is non-enzymatic autoxidation in the presence of H2O2, ROS and metals (Fe^+2, Cu^+2, and Mn^+2) (Montgomery et al., Toxicology. 1995 Mar. 31; 97(1-3):3-9; Sayre et al., 1999 Bio-inorganic Chemistry 3:220-225). Autoxidation of DA can render formation of 6-OHDA (a potent neurotoxin) and O2.^−, of which the later if in proximity to nitric oxide (NO) can react to form ONOO—. Peroxynitrite can then re-oxidize DA, deplete available reduced glutathione/ascorbate, incur a substantial loss of endogenous GSH-peroxidase function and destroy the natural ability of GSH to act as an antioxidant, inactivate toxic DA o-semiquinones or ONOO—(Blum et al., 2001; Antunes et al., Toxicology. 2005 Mar. 15; 208(2):207-12). Likewise, the neurological damage associated with PD corresponds to depletion of SNc GSH as consistently evidenced in various studies (Ebadi et al, Prog Neurobiol. 1996 January; 48(1):1-19) and a reduction of GSH (ie. γ-glutamylcysteine. synthetase inhibitor) renders SNc neurons extremely vulnerable to the toxic effects of MPTP and 6-OHDA (Bharath et al., Biochem Pharmacol. 2002 September; 64(5-6):1037-48). In contrast, administration of thiol antioxidants such as dithioreitol, GSH and NAC (which block the autoxidation of DA), prevent MPTP induced toxicity in mice (Annepu and Ravindranath, Neurosci Lett. 2000 Aug. 11; 289(3):209-12; Bahat-Stroomza et al., Eur J Neurosci. 2005 February; 21(3):637-46). For these reasons, the formulation will include substances that prevent non-enzymatic DA oxidation herein classified under “DA-AUTOXIDATION (−)”. The compounds chosen were based on their propensity to block DA oxidation to melanized pigments in buffered non-acid solution exposed to atmosphere and corresponding production of ROS upon exposure of O2 (data not published). Of approximately 100 food based compounds tested in our lab, the findings indicate a block of DA oxidation at neutral pH by PY, β-CAROTENE (*), NAC (*), GSH (*), VITAMIN C (*). […] The addition of ascorbic acid as a DA-AUTOXIDATION (−) should be limited given its negative counter-indication with iron and 6-OHDA (Mendez-Alvarez et al., Free Radic Biol Med. 2001 Oct. 15; 31(8):986-98). In contrast, ample concentration of thiol substances should be added to the formulation as they are non-toxic, attenuate pathological effects of 6-OHDA, ONOO— and block the formation of DA o-semiquinone neurotoxic radicals (Asanuma et al., Acta Med. Okayama 2004: 58 (5) 221-233).

[5] = tested on: LDH; test: Substrate for lactic acid dehydrogenase; format: biochemical
Source text: (§1) With that, overcoming the initial deficit imposed by PD toxins such as MPP+ are possible with non-glucose intermediates that are capable of sustaining ATP production through substrate level phosphorylation. These compounds should protect against cell death by MPP+, herein also classified under “ANAEROBIC (+)”. […] Agents capable of mediating positive effects on PK/LDH should in theory offset the metabolic vulnerability imposed by the rise in lactate/pyruvate, nicotinamide adenine dinucleotide (NAD)/nicotinamide adenine dinucleotide reduced (NADH) and NADP/NADPH ratios that occur during hypoglycemia and neurological damage (Auer RN. Metab Brain Dis. 2004 December; 19(3-4):169-75). For this reason, the first component and the base of this nutraceutical formulation are one or more of PYRUVIC ACID (*) (PY), […] ACID (SA)* and OXALOACETATE (*) (OA) as well as their corresponding molecular derivatives, analogues, esters or salts. […] On the other hand, PY can readily enter the brain, serve as a useful substrate for glycolysis, the Krebs cycle and the GABA shunt (Gonzalez et al., J Neurochem. 2005 October; 95(1):284-93) with capability to protect ergogenic failure associated with ischemic stroke and heart disease (Lee et al., J Neurosci. 2001 Oct. 15; 21(20):RC171; Hermann et al., Eur J Heart Fail. 2004 Mar. 1; 6(2):213-8).

[6] = tested on: H2O2 toxicity; test: H2O2 toxicity in vitro; format: cell-based
Source text: as §1

[7] = tested on: complex IV; test: Mitochondrial complex IV function; format: biochemical
[8] = tested on: complex II; test: Mitochondrial complex II function; format: biochemical
[9] = tested on: complex I; test: Mitochondrial complex I function
[10] = tested on: mitochondrial respiration; test: Mitochondrial O2 consumption / respiration; format: biochemical
[11] = tested on: 6-OHDA toxicity; settings: Kabuto et al., Neurochem Res. 2005; cited from earlier work
[12] = Non-enzymatic H2O2 scavenging

For `CC(=O)O[C@H](CC(=O)[O-])C[N+](C)(C)C` [ACETYL-L-CARNITINE], the “protection against MPP+ toxicity” value [1] was “effective”.
For `O=C(O[C@@H]1Cc2c(O)cc(O)cc2O[C@@H]1c1cc(O)c(O)c(O)c1)c1cc(O)c(O)c(O)c1` [EGCG, (−)-Epigallocatechin-3-gallate], the “protection against MPP+ toxicity” value [1] was “effective”.
For `COc1cc(/C=C/C(=O)O)ccc1O` [FERULIC ACID], the “reduce/chelate and complex iron” value [2] was “most powerful”.
For `O=C(COP(=O)(O)O)[C@@H](O)[C@H](O)[C@H](O)COP(=O)(O)O` [FRUCTOSE 1,6 BISPHOSPHATE], the “protection against MPP+ toxicity” value [1] was “effective”.
For `O=C(CO)[C@@H](O)[C@H](O)[C@H](O)CO` [FRUCTOSE], the “protection against MPP+ toxicity” value [1] was “effective”.
In the case of `N[C@@H](CCC(=O)N[C@@H](CS)C(=O)NCC(=O)O)C(=O)O` [GSH, reduced glutathione], the “protection against / antagonism of 6-OHDA toxicity” value (“protection against / antagonism” below) [3] is reported as “directly antagonize” and the “block of DA oxidation” value [4] is reported as “block”.
For `O=c1c(O)c(-c2ccc(O)cc2O)oc2cc(O)cc(O)c12` [MORIN], the “reduce/chelate and complex iron” value [2] was “most powerful”.
In the case of `CC(=O)N[C@@H](CS)C(=O)O` [NAC, N-acetyl-L-cysteine], the “protection against / antagonism” value [3] is reported as “directly antagonize” and the “block of DA oxidation” value [4] is reported as “block”.
In the case of `NC(=O)C1=CN([C@@H]2O[C@H](COP(=O)(O)OP(=O)(O)OC[C@H]3O[C@@H](n4cnc5c(N)ncnc54)[C@H](O)[C@@H]3O)[C@@H](O)[C@H]2O)C=CC1` [NADH, reduced nicotinamide adenine dinucleotide], the “protection against MPP+ toxicity” value [1] is reported as “protect”.
In the case of `C=C(OP(=O)(O)O)C(=O)O` [PHOSPHOENOLPYRUVATE], the “protection against MPP+ toxicity” value [1] is reported as “effective”.
For `CN1C(C(=O)Nc2ccccn2)=C(O)c2ccccc2S1(=O)=O` [PIROXICAM, reference compound], the “protection against MPP+ toxicity” value [1] was “effective”.
For `CC(=O)C(=O)O` [PY, PYRUVIC ACID], the “substrates for LDH” value [5] was “exceptional substrates for LDH”, the “protection against MPP+ toxicity” value [1] was “protect” and the “protection against / antagonism” value [3] was “protect”. For the same molecule, the “protection against / antagonism” value ([3]; listed as pyruvate) was “directly antagonize”, the “protection against H2O2 toxicity” value [6] was “protect” and the “block of DA oxidation” value [4] was “block”.
With `Oc1ccc(C=Cc2cc(O)cc(O)c2)cc1` [RESVERATROL] the “protection against MPP+ toxicity” value [1] was “effective”.
For `O=C(O)CCC(=O)O` [SA, SUCCINIC ACID], the “fuel anaerobic glycolysis in the presence of MPP+” value ([1]; data not published) was “great propensity”.
For `Oc1ccc2c(c1)OCO2` [SESAMOL], the “reduce/chelate and complex iron” value [2] was “most powerful”.
With `CC1=CC(=O)C(C(C)C)=CC1=O` [THYMOQUINONE] the “protection against MPP+ toxicity” value [1] was “effective”.
With `N[C@@H](Cc1c[nH]c2ccccc12)C(=O)O` [TRYPTOPHAN] the “protection against MPP+ toxicity” value [1] was “effective”.
With `O=C1O[C@H]([C@@H](O)CO)C(O)=C1O` [VITAMIN C, ascorbic acid] the “block of DA oxidation” value [4] was “block”.
In the case of `O=C(O)/C=C/c1ccc(O)c(O)c1` [caffeic acid], the “reduce/chelate and complex iron” value [2] is reported as “most powerful”.
For `COC1=C(OC)C(=O)C(C/C=C(\C)CC/C=C(\C)CC/C=C(\C)CC/C=C(\C)CC/C=C(\C)CC/C=C(\C)CC/C=C(\C)CC/C=C(\C)CC/C=C(\C)CCC=C(C)C)=C(C)C1=O` [coenzyme Q10], the “effects on complex IV function” value [7] was “little to no effects”, the “potentiation of complex II function” value [8] was “mild potentiator” and the “effects on complex I function” value [9] was “little to no effects”. For the same molecule, the “effects on mitochondrial O2 consumption / mitochondrial respiration as a whole” value [10] was “no effects” and the “protection against MPP+ toxicity” value [1] was “no effects”.
With `O=c1oc2c(O)c(O)cc3c(=O)oc4c(O)c(O)cc1c4c23` [ellagic acid] the “reduce/chelate and complex iron” value [2] was “most powerful”.
For `N[C@@H](Cc1c[nH]cn1)C(=O)O` [histidine], the “protection against / antagonism” value [3] was “mild protection”.
In the case of `O=c1c(O)c(-c2ccc(O)c(O)c2)oc2cc(O)cc(O)c12` [quercetin], the “reduce/chelate and complex iron” value [2] is reported as “most powerful”.
For `Cc1cc2nc3c(=O)[nH]c(=O)nc-3n(C[C@H](O)[C@H](O)[C@H](O)CO)c2cc1C` [riboflavin, RIBOFLAVIN], the “protection against MPP+ toxicity” value [1] was “exacerbating”.
For `COc1cc(CCC(C)=O)ccc1O` [zingerone], the “antagonism of 6-OHDA toxicity” value [11] is listed as “directly antagonize”.
With `CC1=C(/C=C/C(C)=C/C=C/C(C)=C/C=C/C=C(C)/C=C/C=C(C)/C=C/C2=C(C)CCCC2(C)C)C(C)(C)CCC1` [β-CAROTENE] the “scavenge H2O2” value [12] was “scavenge” and the “block of DA oxidation” value [4] was “block”.
In the case of “CYTOCHROME C: cytochrome C, combined with an H2O2 antioxidant to detoxify 6-OHDA”, the “protection against / antagonism” value [3] is reported as “directly antagonize”.
In the case of NARINGEN, the “protection against MPP+ toxicity” value [1] is reported as “effective”.
For Vitamin E, the “scavenge H2O2” value [12] was “lack of effects” and the “block of DA oxidation” value [4] was “lack of effects”.
